Where only a bound is given, the exact number is not on record here.

What all share (assay type): cell-based, murine and human
For one experiment, the target named is T1, PPARδ (UniProt Q03181).
T1 sequence (Q03181 1-441): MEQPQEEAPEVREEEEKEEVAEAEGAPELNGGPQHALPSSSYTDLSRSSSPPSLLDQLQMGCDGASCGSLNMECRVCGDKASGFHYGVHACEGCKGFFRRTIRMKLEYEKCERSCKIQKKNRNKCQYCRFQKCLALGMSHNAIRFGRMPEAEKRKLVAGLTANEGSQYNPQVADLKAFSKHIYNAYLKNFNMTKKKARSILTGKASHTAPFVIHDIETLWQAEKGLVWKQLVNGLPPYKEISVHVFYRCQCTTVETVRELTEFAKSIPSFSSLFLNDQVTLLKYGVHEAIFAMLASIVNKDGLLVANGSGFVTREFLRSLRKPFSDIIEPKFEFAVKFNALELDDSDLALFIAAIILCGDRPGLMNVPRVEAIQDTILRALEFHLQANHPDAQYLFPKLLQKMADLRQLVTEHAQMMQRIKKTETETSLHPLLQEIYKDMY
Briefly: PPARδ GAL4 chimera transactivation assay in CV-1 cells. As to conditions: transient transfection, luciferase reporter, 20-24 hours, read-out: PPAR delta. An excerpt:
(§1) Compounds were screened for functional potency in transient transfection assays in CV-1 cells for their ability to activate the PPAR subtypes (transactivation assay). A previously established chimeric receptor system was utilized to allow comparison of the relative transcriptional activity of the receptor subtypes on the same synthetic response element and to prevent endogenous receptor activation from complicating the interpretation of results. See, for example, Lehmann, J. M.; Moore, L. B.; Smith-Oliver, T. A; Wilkinson, W. O.; Willson, T. M.; Kliewer, S. A., An antidiabetic thiazolidinedione is a high affinity ligand for peroxisome proliferator-activated receptor […], J. Biol. Chem., 1995, 270, 12953-6. The ligand binding domains for murine and human PPARα, PPARγ, and PPARδ are each fused to the yeast transcription factor GAL4 DNA binding domain. CV-1 cells were transiently transfected with expression vectors for the respective PPAR chimera along with a reporter construct containing four or five copies of the GAL4 DNA binding site driving expression of luciferase. […] Luciferase activity was then assayed with Britelite (Perkin Elmer) following the manufacturer's protocol and measured with either the Perkin Elmer Viewlux or Molecular Devices Acquest (see, for example, Kliewer, S. A., et. al. Cell 1995, 83, 813-819). […]
Background: A reporter such as luciferase makes a cellular process visible.

In a further experiment the target is T2, PPARγ (UniProt P37231).
T2 sequence (P37231 1-505): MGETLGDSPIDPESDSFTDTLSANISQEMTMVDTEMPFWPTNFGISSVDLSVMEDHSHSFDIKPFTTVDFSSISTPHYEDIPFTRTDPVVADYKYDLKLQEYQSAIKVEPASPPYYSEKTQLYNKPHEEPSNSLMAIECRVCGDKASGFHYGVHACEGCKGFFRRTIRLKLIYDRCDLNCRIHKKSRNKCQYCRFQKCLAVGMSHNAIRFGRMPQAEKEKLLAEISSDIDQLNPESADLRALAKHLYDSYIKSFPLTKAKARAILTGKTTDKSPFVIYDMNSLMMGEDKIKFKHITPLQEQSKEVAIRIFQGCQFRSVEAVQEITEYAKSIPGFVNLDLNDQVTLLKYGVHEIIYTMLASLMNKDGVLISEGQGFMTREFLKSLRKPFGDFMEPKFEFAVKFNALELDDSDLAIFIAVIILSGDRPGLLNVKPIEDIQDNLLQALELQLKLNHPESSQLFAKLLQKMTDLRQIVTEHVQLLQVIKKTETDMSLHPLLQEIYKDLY
Kind of experiment: PPARγ GAL4 chimera transactivation assay in CV-1 cells. The note with it: transient transfection, luciferase reporter, 20-24 hours, read-out: PPAR gamma.
Text: as §1

Another experiment deals with T3, PPARα (UniProt Q07869).
T3 sequence (Q07869 1-468): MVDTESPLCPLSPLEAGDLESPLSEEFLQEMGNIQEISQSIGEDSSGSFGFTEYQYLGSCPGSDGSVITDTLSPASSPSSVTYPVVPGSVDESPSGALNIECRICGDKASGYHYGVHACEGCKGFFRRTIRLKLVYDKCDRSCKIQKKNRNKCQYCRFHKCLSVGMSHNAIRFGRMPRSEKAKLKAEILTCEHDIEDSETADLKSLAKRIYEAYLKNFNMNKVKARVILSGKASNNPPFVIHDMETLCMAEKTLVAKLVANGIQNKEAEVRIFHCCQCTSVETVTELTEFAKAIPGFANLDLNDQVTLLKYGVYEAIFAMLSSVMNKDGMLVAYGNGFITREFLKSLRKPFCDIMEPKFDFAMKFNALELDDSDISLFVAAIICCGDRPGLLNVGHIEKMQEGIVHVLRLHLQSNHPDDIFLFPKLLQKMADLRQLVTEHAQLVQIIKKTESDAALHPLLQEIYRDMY
Kind of experiment: PPARα GAL4 chimera transactivation assay in CV-1 cells. As to conditions: transient transfection, luciferase reporter, 20-24 hours, read-out: PPAR alpha.
Text: as §1

`C[C@@H]1CN(Cc2ccc(OC(F)(F)F)cc2)C[C@H](C)N1S(=O)(=O)c1cccc2c1C[C@@H](C(=O)O)C2` [Compound 2, (S)-4-[cis-2,6-Dimethyl-4-(4-trifluoromethoxy-benzyl)-piperazine-1-sulfonyl]-indan-2-carboxylic acid]: the EC50 was less than 5 µM at PPARδ, 5 to 100 µM at PPARγ and greater than 100 µM on PPARα.

On to `C[C@@H]1CN(c2ccc(OC(F)(F)F)cc2)C[C@H](C)N1S(=O)(=O)c1cccc2c1C[C@@H](C(=O)O)C2` [Compound 1, (S)-4-[cis-2,6-Dimethyl-4-(4-trifluoromethoxy-phenyl)-piperazine-1-sulfonyl]-indan-2-carboxylic acid], for which the results for the EC50 on PPARδ, at PPARγ and on PPARα were less than 5 µM, greater than 100 µM and greater than 100 µM, respectively.

These data come from patent US7863276B2, “Salts of modulators of PPAR and methods of treating metabolic disorders” (KALYPSYS, Inc, priority 2005, dated 2011).
